Test results from PMC7083565, “In vitro metabolism, reaction phenotyping, enzyme kinetics, CYP inhibition and induction potential of ataluren” (Pharmacology Research & Perspectives, 2020).

How the values were obtained:
Type in all cases: in vitro ADME
CYP2E1 = assay: CYP induction in primary human hepatocytes: CYP2E1; settings: male, 48 h, 4 µM
Method: Human hepatocytes isolated from three Caucasian males were transferred to 48‐well collagen‐coated plates at 0.14 × 10^6 cells/well in planting media for attachment. After attachment, planting media was replaced with sandwich media and the cells were incubated until clusters were established. […] The incubation solutions were aspirated and replaced with freshly prepared incubation solutions containing ataluren for an additional 24 hours. […] The incubation solutions were then aspirated and 150 µL of K‐H buffer containing CYP substrates were added. […] Metabolite formation in incubations with test compounds and control inhibitors was assessed with validated LC‐MS/MS methods for each of the reaction products as described in Table S2. Enzymatic activity for each CYP was calculated using the absolute amount of metabolite formed (pmol) divided by hepatocytes in the incubation (million cells) and the incubation time (minute). The relative fold induction in enzymatic activity was calculated by comparing the rate of metabolite formation for treatment groups to that of the solvent control group (reported as vehicle control%) or positive control group (reported as positive control%).

UGT1A9 = target: T1, UGT1A9 (Homo sapiens, UniProt O60656); assay: Reaction phenotyping with recombinant human UGT enzymes: UGT1A9; settings: rUGT1A9 0.25 mg protein/mL, 10 μmol/L, 60 minutes, n = 2
T1 construct: purchased BD Biosciences; host or cells: baculovirus-infected insect cells
T1 sequence (O60656 26-530): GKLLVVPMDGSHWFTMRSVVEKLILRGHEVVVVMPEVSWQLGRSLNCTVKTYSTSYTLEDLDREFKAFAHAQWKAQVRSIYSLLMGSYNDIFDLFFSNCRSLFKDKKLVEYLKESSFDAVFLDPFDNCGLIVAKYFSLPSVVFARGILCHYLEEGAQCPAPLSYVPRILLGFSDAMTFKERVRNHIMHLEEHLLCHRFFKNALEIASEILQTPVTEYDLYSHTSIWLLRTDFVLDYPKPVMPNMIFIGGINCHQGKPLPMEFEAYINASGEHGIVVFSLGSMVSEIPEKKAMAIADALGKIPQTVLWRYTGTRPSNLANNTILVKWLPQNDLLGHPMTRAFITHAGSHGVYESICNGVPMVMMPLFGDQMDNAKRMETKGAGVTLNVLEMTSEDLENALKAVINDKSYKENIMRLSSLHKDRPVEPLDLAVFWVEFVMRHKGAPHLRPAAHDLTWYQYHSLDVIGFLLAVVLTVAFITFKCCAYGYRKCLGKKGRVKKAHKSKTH
Method: Ataluren at 10 μmol/L, was incubated (n = 2) with recombinant human uridine diphosphate glucuronosyltransferase (rUGT) enzymes: rUGTs 1A1, 1A3, 1A4, 1A6, 1A7, 1A8, 1A9, 1A10, 2B4, 2B7, 2B15, and 2B17 at 0.25 mg protein/mL. Incubations were conducted in duplicate at 37°C. The incubation mixture (0.2 mL, final volume with 1% methanol) consisted of Tris‐HCl buffer (100 mmol/L, pH 7.7 at 37°C), MgCl2 (10 mmol/L), EDTA (1 mmol/L), saccharic acid 1,4‐lactone (0.1 mmol/L), and UDPGA (8 mmol/L). […] Samples were subjected to centrifugation (920 g for 10 minutes at 10°C) and the supernatant fractions were analyzed by LC‐MS/MS to quantify the formation of ataluren‐O‐1β‐acyl glucuronide and loss of ataluren. […] The ataluren acyl glucuronide formation rate after 60 minutes incubation was calculated using the amount of metabolite formed (pmol) divided by the protein amount in the incubation sample (0.05 mg) and the incubation time (60 minutes).
Quantification of ataluren loss and ataluren‐O‐1β‐acyl glucuronide formation was carried out with an LC‐MS/MS system, which consisted of two Shimadzu LC‐10ADvp pumps, a SPD10‐AVP UV/Vis detector, a Shimadzu SILHTA autosampler, a Shimadzu DGU‐14A degasser, and a Sciex API 4000 QTRAP mass spectrometer equipped with a Turbo Ionspray ionization source that operated in positive ionization mode. […]

[1] = Plasma protein binding (ultrafiltration), dog; settings: male, beagle, 50 to 50 000 ng/mL, mean ± SD, n = 3, read-out: percentage protein binding (converted)
Method: [^14C]‐Ataluren, at 50, 500, 5000, and 50 000 ng/mL or 0.175, 1.75, 17.5, and 175 µM, in male mouse, rat, dog, monkey, and human plasma, was incubated (n = 3) at 37°C for approximately 15 minutes, transferred into Centrifree® Micropartition Units (30 000 Da molecular weight cutoff, 1 mL capacity; Amicon Inc), and centrifuged at 37°C and 2000 g for approximately 10 minutes so that the amount of the sample filtered was approximately ≤ 20% of the total volume. After centrifugation, the entire ultrafiltrate was weighed and analyzed for radioactivity using liquid scintillation counting. The percent bound = (1‐Cu/Cm)×100, where Cu is the concentration of radioactivity in the ultrafiltrate and Cm is the concentration of radioactivity in the plasma before centrifugation.

With O=C(O)c1cccc(-c2noc(-c3ccccc3F)n2)c1 [ataluren, Ataluren] as the compound, how does the “Vehicle control %, Mean” value (CYP2E1) read?
The value was 99.0%.

What about the ataluren loss (UGT1A9) of the same compound?
Its ataluren loss is 32.7%.

And the fraction unbound at 15 min [1]?
The fraction unbound at 15 min was 0.025.
